ChEMBL document CHEMBL1777712, “The identification of new metallo-β-lactamase inhibitor leads from fragment-based screening” (Bioorg Med Chem Lett, 2011)

What was measured:
[1] = Un-competitive inhibition of metallo-beta-lactamase IMP-1 expressed in Escherichia coli BL21(DE3) using benzylpenicillin as substrate by 96-well plate assay
[2] = Competitive inhibition of metallo-beta-lactamase IMP-1 expressed in Escherichia coli BL21(DE3) using benzylpenicillin as substrate by 96-well plate assay
[3] = Competitive inhibition of metallo-beta-lactamase IMP-1 expressed in Escherichia coli BL21(DE3) using penicillin G as substrate by cuvette assay
[4] = Competitive inhibition of metallo-beta-lactamase IMP-1 expressed in Escherichia coli BL21(DE3) using penicillin G as substrate by 96-well plate assay

Compound	Ki [1]	Ki [2]	Ki [3]	Ki [4]
Nc1ccc(C(F)(F)F)cc1N	430 µM	990 µM		
COC(=O)c1cccc(CN)c1	410 µM	890 µM		
OCc1ccc(-n2ccnc2)cc1	500 µM	> 2000 µM		
NC(=O)Cc1ccc(F)cc1Cl	680 µM	760 µM		
Nc1cccc(-c2cccnc2)c1	900 µM	510 µM		
Cn1c(S)nnc1C(F)(F)F	> 2000 µM	970 µM		
OCc1ccc(Cn2ccnc2)cc1	790 µM	> 2000 µM		
Nc1cccc(Cn2ccnc2)c1	780 µM	1640 µM		
Nc1ccc(Cn2ccnc2)cc1	1180 µM	1510 µM		
C[C@H](CS)C(=O)N1CCC[C@H]1C(=O)O [CAPTOPRIL]	> 2000 µM		12.5 µM	7.2 µM
